pEC50, pKi: −log10 of the molar value.

The target in the first experiment is T1, S1P1 (Homo sapiens (Human), UniProt P21453). Nature of the experiment: 35S-GTPγS binding, membranes from CHO cells expressing S1P1. The note with it: CHO cell membranes. Format: biochemical. For orientation: Binding of GTPγS marks nucleotide exchange on a G protein.
T1 sequence (P21453 whole entry, species assumed): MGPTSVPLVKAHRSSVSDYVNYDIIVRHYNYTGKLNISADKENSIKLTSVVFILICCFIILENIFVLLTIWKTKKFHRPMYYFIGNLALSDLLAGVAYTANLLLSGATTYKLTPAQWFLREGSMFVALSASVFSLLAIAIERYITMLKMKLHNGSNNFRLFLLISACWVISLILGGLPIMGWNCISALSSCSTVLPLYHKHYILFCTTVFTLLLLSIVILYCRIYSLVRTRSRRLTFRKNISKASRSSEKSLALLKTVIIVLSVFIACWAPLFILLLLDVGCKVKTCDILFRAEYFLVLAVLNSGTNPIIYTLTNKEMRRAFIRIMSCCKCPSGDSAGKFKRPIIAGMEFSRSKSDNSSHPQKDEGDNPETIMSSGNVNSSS
For orientation: pEC50 means −log10 of the EC50, conventionally taken in molar units. High values mean a low EC50, low ones a high EC50. `CC(C)Cn1ncc(-c2nc(-c3ccc(CO)cc3)no2)c1-c1ccncc1` [Example 54, {4-[5-(1-isobutyl-5-pyridin-4-yl-1H-pyrazol-4-yl)-1,2,4-oxadiazol-3-yl]phenyl}methanol]: the pEC50 was 6.72.
On the same count and under the same terms, as for `OCc1ccc(-c2noc(-c3cnn(C4CCCCC4)c3C3CCOCC3)n2)cc1` [Example 70, (4-{5-[1-cyclohexyl-5-(tetrahydro-2H-pyran-4-yl)-1H-pyrazol-4-yl]-1,2,4-oxadiazol-3-yl}phenyl)methanol], the figure is 7.09.
With `CC(C)Cn1ncc(-c2nc(-c3ccc(CN(C)CC(=O)O)cc3)no2)c1-c1ccncc1` [Example 77, N-{4-[5-(1-isobutyl-5-pyridin-4-yl-1H-pyrazol-4-yl)-1,2,4-oxadiazol-3-yl]benzyl}-N-methylglycine], the pEC50 was 6.08.
Still for that read-out and setting: as for `COCc1c(-c2nc(-c3ccc(CNCCC(=O)O)cc3)no2)cnn1CC(C)C` [Example 84, 3-(4-(5-(1-isobutyl-5-(methoxymethyl)-1H-pyrazol-4-yl)-1,2,4-oxadiazol-3-yl)benzylamino)propanoic acid], the figure is 6.54.
In the case of `Fc1ccc(F)c(-c2noc(-c3cnn(CCc4ccccc4)c3-c3ccncc3)n2)c1` [Example 99, 3-(2,5-difluorophenyl)-5-(1-phenethyl-5-(pyridin-4-yl)-1H-pyrazol-4-yl)-1,2,4-oxadiazole], the pEC50 is 6.30.
The same measure, in the same setting: as for `COCc1c(-c2nc(-c3ccc(CN4CC(C(=O)O)C4)cc3)no2)cnn1CC(C)C` [Example 76, 1-(4-{5-[1-isobutyl-5-(methoxymethyl)-1H-pyrazol-4-yl]-1,2,4-oxadiazol-3-yl}benzyl)azetidine-3-carboxylic acid], the figure is 7.64.
On to `Fc1ccc(F)c(-c2nc(-c3cnn(C4CCCCC4)c3-c3ccccc3)no2)c1` [Example 57, 3-(1-cyclohexyl-5-phenyl-1H-pyrazol-4-yl)-5-(2,5-difluorophenyl)-1,2,4-oxadiazole], for which the pEC50 was 7.31.
Same read-out and setting: as for `COCc1c(-c2nc(-c3cc(F)ccc3F)no2)cnn1CC(C)C` [Example 17, 3-(2,5-difluorophenyl)-5-(1-isobutyl-5-(methoxymethyl)-1H-pyrazol-4-yl)-1,2,4-oxadiazole], the figure is 6.19; as for `COCc1c(-c2nc(-c3ccc(Cn4cccn4)cc3)no2)cnn1C1CCCCC1` [Example 114, 3-(4-((1H-pyrazol-1-yl)methyl)phenyl)-5-(1-cyclohexyl-5-(methoxymethyl)-1H-pyrazol-4-yl)-1,2,4-oxadiazole], 7.03.
Same read-out and setting: as for `O=C(O)C1CCN(Cc2ccc(-c3noc(-c4cnn(C5CCCCC5)c4C4CCOCC4)n3)cc2)CC1` [Example 132, 1-(4-(5-(1-cyclohexyl-5-(tetrahydro-2H-pyran-4-yl)-1H-pyrazol-4-yl)-1,2,4-oxadiazol-3-yl)benzyl)piperidine-4-carboxylic acid], the figure is 7.74; as for `Fc1ccc(F)c(-c2noc(-c3cnn(CCNC4CC4)c3-c3ccccc3)n2)c1` [Example 35, N-(2-{4-[3-(2,5-difluorophenyl)-1,2,4-oxadiazol-5-yl]-5-phenyl-1H-pyrazol-1-yl}ethyl)cyclopropanamine], 6.03.
On the same count and under the same terms, the result for `Cc1nn(C2CCCCC2)cc1-c1nc(-c2cc(F)ccc2F)no1` [Example 83, 5-(1-cyclohexyl-3-methyl-1H-pyrazol-4-yl)-3-(2,5-difluorophenyl)-1,2,4-oxadiazole] reads 6.50.
`COCc1c(-c2nc(-c3ccc(O)cc3)no2)cnn1C1CCCCC1` [Example 123, 4-(5-(1-cyclohexyl-5-(methoxymethyl)-1H-pyrazol-4-yl)-1,2,4-oxadiazol-3-yl)phenol] had a pEC50 of 7.09.
`CNCc1ccc(-c2noc(-c3cnn(CCc4ccccc4)c3-c3ccncc3)n2)cc1` [Example 106, N-methyl-1-(4-(5-(1-phenethyl-5-(pyridin-4-yl)-1H-pyrazol-4-yl)-1,2,4-oxadiazol-3-yl)phenyl)methanamine]: the pEC50 was 6.34.
Same read-out and setting: as for `O=C(O)C1CCN(Cc2ccc(-c3noc(-c4cnn(C5CCCCC5)c4-c4ccncc4)n3)cc2)CC1` [Example 71, 1-{4-[5-(1-cyclohexyl-5-pyridin-4-yl-1H-pyrazol-4-yl)-1,2,4-oxadiazol-3-yl]benzyl}piperidine-4-carboxylic acid], the figure is 8.22; as for `CC(C)(C)Cn1ncc(-c2nc(-c3ccc(CO)cc3)no2)c1-c1ccncc1` [Example 100, (4-(5-(1-neopentyl-5-(pyridin-4-yl)-1H-pyrazol-4-yl)-1,2,4-oxadiazol-3-yl)phenyl)methanol], 6.42; as for `CNCc1ccc(-c2noc(-c3cnn(C4CCCCC4)c3C3CCOCC3)n2)cc1` [Example 88, 1-(4-(5-(1-cyclohexyl-5-(tetrahydro-2H-pyran-4-yl)-1H-pyrazol-4-yl)-1,2,4-oxadiazol-3-yl)phenyl)-N-methylmethanamine], 7.33.
As to `Fc1ccc(F)c(-c2noc(-c3cnn(C4CCCC4)c3-c3ccncc3)n2)c1` [Example 30, 4-{1-cyclopentyl-4-[3-(2,5-difluorophenyl)-1,2,4-oxadiazol-5-yl]-1H-pyrazol-5-yl}Pyridine], the pEC50 is 7.70.

Another experiment concerns the target T1, S1P1. Nature of the experiment: Receptor binding assay, [33P]sphingosine 1-phosphate, membranes from CHO cells expressing S1P1. The note with it: CHO cell membranes, 25 pM [33P]sphingosine 1-phosphate. As for the experimental part: Receptor binding assay: Membranes were prepared from CHO cells expressing S1P1 or S1P3 for use in ligand and […] binding studies. Cells were suspended in 50 mM TRIS, pH 7.4, 2 mM EDTA, 250 mM Sucrose (buffer A) and 1× Complete protease inhibitor cocktail (Roche), and disrupted at 4° C. by N2 decompression using a cell disruption bomb (Parr Instrument). Following centrifugation at 1000 RPM for 10 min at 4° C., the supernatant was suspended in buffer A and centrifuged again at 19000 RPM for 60 min at 4° C. The pellet was then suspended in 10 mM HEPES, pH 7.4, 1 mM EDTA, 250 mM Sucrose (Buffer B), and 1× Complete EDTA-free protease inhibitor cocktail and homogenized using a potter. Membranes were flash frozen in liquid N2 and stored at −80° C. [33P]sphingosine 1-phosphate (3000 Ci/mmol; American Radiolabeled Chemicals, Inc.) was added to test compounds in DMSO. Membranes and WGA SPA beads (GE Healthcare) were added to give a final volume of 100 μl in 96-well plates with assay concentrations of 25 pM or 10 pM [33P]sphingosine 1-phosphate (respectively for S1P1 or S1P3), 50 mM HEPES, pH 7.5, 5 mM MgCl2, 100 mM NaCl, 0.4% fatty acid-free BSA, 1-5 μg/well of proteins and 100 μg/well of WGA SPA beads. Binding was performed for 60 min at RT on a shaker and bound radioactivity was measured on a PerkinElmer 1450 MicroBeta counter. Specific binding was calculated by subtracting remaining radioactivity in the presence of 1000-fold excess of unlabeled SIP. Binding data were analyzed using the GraphPad Prism program.
The pKi is the Ki on a negative log10 scale, so that one unit is a factor of ten. Read a high pKi as a low Ki. `COCc1c(-c2nc(-c3cccc(/C=C/C(=O)O)c3)no2)cnn1C1CCCCC1` [Example 142] gave a negative logarithm of the Ki (pKi) of 6.72.
On the same count and under the same terms, the result for `COCc1c(-c2nc(-c3cccc(OCCCC(=O)O)c3)no2)cnn1C1CCCCC1` [Example 144] reads 7.51; that for `COCc1c(-c2nc(-c3cccc(COCCC(=O)O)c3)no2)cnn1C1CCCCC1` [Example 141], 6.74.
`COCc1c(-c2nc(-c3ccc(/C=C/C(=O)O)cc3)no2)cnn1C1CCCCC1` [Example 98, (E)-3-(4-(5-(1-cyclohexyl-5-(methoxymethyl)-1H-pyrazol-4-yl)-1,2,4-oxadiazol-3-yl)phenyl)acrylic acid]: the pKi was 6.39.
On the same count and under the same terms, the result for `COCc1c(-c2nc(-c3cccc(C(=O)NCCC(=O)O)c3)no2)cnn1C1CCCCC1` [Example 147] reads 6.59; that for `COCc1c(-c2nc(-c3ccc(COCCCC(=O)O)cc3)no2)cnn1C1CCCCC1` [Example 133, 4-(4-(5-(1-cyclohexyl-5-(methoxymethyl)-1H-pyrazol-4-yl)-1,2,4-oxadiazol-3-yl)benzyloxy)butanoic acid], 6.91.
For the compound `c1cc(-c2c(-c3nc(-c4ccc(Cn5ncnn5)cc4)no3)cnn2C2CCCCC2)ccn1` [Example 150], the pKi was 8.47.
As for `c1cc(-c2c(-c3nc(-c4ccc(Cn5cnnn5)cc4)no3)cnn2C2CCCCC2)ccn1` [Example 155], the negative-log Ki (pKi) was 8.22.
On the same count and under the same terms, as for `COCc1c(-c2nc(-c3ccc(C(=O)NCCC(=O)O)cc3)no2)cnn1C1CCCCC1` [Example 146], the figure is 8.00; as for `N#CCc1ccc(-c2noc(-c3cnn(C4CCCCC4)c3-c3ccncc3)n2)cc1` [Example 152], 8.48; as for `COCc1c(-c2nc(-c3ccc(CCC(=O)O)cc3)no2)cnn1C1CCCCC1` [Example 139], 6.41.
Compound `c1cc(-c2c(-c3nc(-c4ccc(CCn5cncn5)cc4)no3)cnn2C2CCCCC2)ccn1` [Example 151] showed a pKi of 8.34.
Consider `COCc1c(-c2nc(-c3cccc(CCC(=O)O)c3)no2)cnn1C1CCCCC1` [Example 145], for which the pKi was 6.94.
As for `c1cnn(Cc2ccc(-c3noc(-c4cnn(C5CCCCC5)c4-c4ccncc4)n3)cc2)c1` [Example 149], the pKi was 8.28.
`c1cnn(Cc2ccc(-c3noc(-c4cnn(C5CCCCC5)c4-c4ccncc4)n3)cc2)c1` [Example 137, 4-{2-Cyclohexyl-4-[3-(4-pyrazol-1-ylmethyl-phenyl)-[1,2,4]oxadiazol-5-yl]-2H-pyrazol-3-yl}-pyridine] showed a pKi of 8.29.
Still for that read-out and setting: as for `COCc1c(-c2nc(-c3cccc(CO)c3)no2)cnn1C1CCCCC1` [Example 138], the figure is 7.60.
Still for that read-out and setting: as for `COCc1c(-c2nc(-c3cccc(COCC(=O)O)c3)no2)cnn1C1CCCCC1` [Example 143], the figure is 7.38; as for `COCc1c(-c2nc(-c3ccc(OCCCC(=O)O)cc3)no2)cnn1C1CCCCC1` [Example 134, 4-(4-(5-(1-cyclohexyl-5-(methoxymethyl)-1H-pyrazol-4-yl)-1,2,4-oxadiazol-3-yl)Phenoxy)butanoic acid], 6.89.
On the same count and under the same terms, as for `c1cc(-c2c(-c3nc(-c4ccc(Cc5nnn[nH]5)cc4)no3)cnn2C2CCCCC2)ccn1` [Example 154], the figure is 7.12; as for `COCc1c(-c2nc(-c3cccc(COCC(=O)O)c3)no2)cnn1C1CCCCC1` [Example 135, {3-[5-(1-Cyclohexyl-5-methoxymethyl-1H-pyrazol-4-yl)-[1,2,4]oxadiazol-3-yl]-benzyloxy}-acetic acid], 7.38; as for `O=C(O)c1cnn(Cc2ccc(-c3noc(-c4cnn(C5CCCCC5)c4-c4ccncc4)n3)cc2)c1` [Example 153], 7.55.

Source of the values: patent US8802663B2, “Pyrazole oxadiazole derivatives as S1P1 agonists” (Merck Serono SA, priority 2009, dated 2014).
